{
  "source": "patent US20110045032A1",
  "about": "(priority 2001, published 2011)",
  "key": {"ragweed-sensitized mice [1]": {"test_system": "ragweed-sensitized mice", "test": "BAL cell populations after methacholine challenge (Example 28)", "format": "in vivo", "conditions": "Ragweed alone 13.8%; P<0.05", "method": "(§1) Two groups of mice were sensitized with two intraperitoneal injections and one intranasat administration of ragweed allergen (Ambrosia artemistifolia) on days 0, 4 and 11 respectively. A third group was treated similarly with saline to serve as non-allergic controls. The next two days, the treatment group animals were exposed to DHEA-S delivered as an aerosol (5 mg/ml suspension in saline, 2 ml nebulized) using the whole-body plethysmograph system (Buxco Electronics, Inc., Sharon, Conn.) and a DeVilbiss ultrasonic nebulizer. Twenty-four hours after the last drug exposure, mice were challenged with increasing concentrations of methacholine to determine bronchial hyperresponsiveness and then lavaged to determine relative changes in cell populations in BAL fluid."}, "[2]": {"test": "Serum and BAL DHEA and DHEA-S levels (Example 26)", "format": "in vivo, rabbits", "conditions": "rabbit, serum, inhaled, 10 mg/day; twenty-four hours after the last of seven daily treatments; prior 4.7", "method": "(§2) This study defines the effect of 7 days of treatment with DHEA-S on allergen-induced bronchial hyperresponsiveness (BHR), early and late phase responses, and pulmonary inflammation in dust mite-sensitized rabbits. Baseline BHR and inflammation were first determined. DHEA-S (5 mg/ml, 2 ml nebulized) or an equivalent volume of vehicle was delivered once per day via nebulization through a pediatric facemask covering the nose and mouth on days 1 through 7. On day 8, 24 hours after the last treatment, allergen challenge, pulmonary function testing and BALF were performed. On day 9, 24 hours after allergen challenge a histamine challenge was performed and the lungs removed for histology. The study includes 5 animals studied under a crossover design. There was a 3 week resting period between study arms and lungs were taken during the second treatment arm only. The treatment with DHEA-S led to the changes in the disease status of the animals described in the following paragraph."}, "[3]": {"test_system": "dust mite-sensitized cynomolgus monkeys", "test": "BALF cell count after allergen challenge (Example 24)", "format": "in vivo", "conditions": "for total leukocytes in BALF: DHEA-S treatment group", "method": "This study defines the effect of 5 days of treatment with DHEA-S on allergen-induced early phase response, and pulmonary inflammation in dust mite-sensitized cynomolgus monkeys. Baseline parameters were measured the week prior to treatment. DHEA-S (5 mg/ml, 2 ml nebulized) or an equivalent volume of saline was delivered once per day via nebulization (Pari LC+) through a canine facemask covering the nose and mouth on days 1 through 5. Allergen challenge and pulmonary function testing were performed on day 3 several hours after drug treatment, and broncho-alveolar lavage fluid BALF) was collected 48 hours post-challenge. The study includes 6 animals studied under a crossover design with a minimum of 4 weeks rest between study arms. The treatment with DHEA-S led to the following changes in the disease status of the animals: […]"}, "ragweed-sensitized mice [4]": {"test_system": "ragweed-sensitized mice", "test": "Bronchial hyperresponsiveness to methacholine, whole-body plethysmograph (Example 28)", "format": "in vivo", "method": "as §1\nThe ragweed only group responded in a dose-related fashion with increasing Penh value over the range of methacholine tested and a mean area under the curve of 7488.8."}, "[5]": {"test_system": "dust mite-sensitized cynomolgus monkeys", "test": "Early phase pulmonary function response to allergen (Example 24)", "format": "in vivo", "method": "This study defines the effect of 5 days of treatment with DHEA-S on allergen-induced early phase response, and pulmonary inflammation in dust mite-sensitized cynomolgus monkeys. Baseline parameters were measured the week prior to treatment. DHEA-S (5 mg/ml, 2 ml nebulized) or an equivalent volume of saline was delivered once per day via nebulization (Pari LC+) through a canine facemask covering the nose and mouth on days 1 through 5. Allergen challenge and pulmonary function testing were performed on day 3 several hours after drug treatment, and broncho-alveolar lavage fluid BALF) was collected 48 hours post-challenge. The study includes 6 animals studied under a crossover design with a minimum of 4 weeks rest between study arms. The treatment with DHEA-S led to the following changes in the disease status of the animals:\nEffects on airway obstruction were measured by changes in dynamic compliance in response to allergen challenge. Allergic Cynomolgus monkeys were monitored for 15 minutes following allergen challenge and the values plotted against time. Changes in dynamic compliance were determined by the % change in compliance as compared to the animal's initial saline value recorded prior to challenge. Changes in response to allergen and/or treatment were calculated using the area under the curve (AUC) where an AUC unit is defined as % change×minutes. Treatment with DHEA-S attenuated the drop in airway compliance following allergen challenge by 87% as compared to saline treatment. With saline treatment, the total AUC was −394±127 units compared to −49±116 units for animals treated with DHEA-S. See, FIGS. 4.3.1.1; 4.3.1.2. This difference in the total AUC for vehicle and DHEA-S treated animals was determined to be significant using Student's t-test for paired observations, p=0.035. Likewise, treatment with DHEA-S attenuated the increase in airway resistance following allergen challenge by 90% as compared to saline treatment."}, "[6]": {"test_system": "dust mite-sensitized rabbits", "test": "Pulmonary function after allergen challenge, nebulized (Example 26)", "format": "in vivo", "method": "as §2\nEffects on airway obstruction were measured by changes in dynamic compliance and total lung resistance in response to allergen challenge. Rabbits were monitored for 6 hours following allergen challenge and the values plotted against time. Changes in dynamic compliance were determined by the % change in compliance as compared to the animal's initial saline value recorded prior to challenge. Changes in response to allergen and/or treatment were calculated using the AUC where an AUC unit is defined as % change×hour. Treatment with DHEA-S attenuated the drop in airway compliance following allergen challenge by 62% as compared to vehicle treatment. […] Variability during the early phase kept differences in AUC between the vehicle and drug treatment groups from being significant when analyzed using a paired t-test."}, "[7]": {"conditions": "48 hours after allergen challenge, compared to saline"}},
  "data": [
    {"smiles": "CC12CCC3C(CC=C4CC(OS(=O)(=O)[O-])CCC43C)C1CCC2=O.[Na+]", "note": "(centres unmarked) [DHEA-S, Dehydroepiandrosterone sulfate]", "values": [
      {"measurement": "percent neutrophils in BAL", "setting": "ragweed-sensitized mice [1]", "result": 3.2, "unit": "%"},
      {"measurement": "concentration at 24 h after the last dose", "setting": "[2]", "result": 49, "unit": "ng/mL"},
      {"measurement": "decrease of % eosinophils in BALF", "setting": "[3]; [7]", "result": "approximately 57%"},
      {"measurement": "decrease of percentage of neutrophils in BALF", "setting": "[3]; [7]", "result": 42, "unit": "%"},
      {"measurement": "eosinophil numbers in BALF less than saline", "setting": "[3]; 48 hours after allergen challenge, did not reach significance", "result": "approximately 64%"},
      {"measurement": "eosinophil numbers in BALF", "setting": "[3]; 48 hours after allergen challenge, saline 4.3±1.7", "result": "1.6±0.8 ×10^4 cells/ml"},
      {"measurement": "total leukocytes in BALF", "setting": "[3]; 48 hours after allergen challenge", "result": "39.4 ×10^4 cell/ml"},
      {"measurement": "total leukocytes in BALF", "setting": "[3]; before allergen challenge", "result": "34.5 ×10^4 cell/ml"},
      {"measurement": "absolute number of neutrophils in BALF", "setting": "[3]; after allergen challenge", "result": "9.7±2.2 ×10^4 cells/ml"},
      {"measurement": "neutrophil influx level vs pre-challenge", "setting": "[3]; cynomolgus monkey, in vivo", "result": "not significantly higher than pre-challenge levels"},
      {"measurement": "percentage of eosinophils before and after allergen challenge", "setting": "[3]; cynomolgus monkey, in vivo", "result": "not significantly different"},
      {"measurement": "reduction of area under the curve (AUC) of the methacholine response", "setting": "ragweed-sensitized mice [4]; aerosol 5 mg/ml suspension, 2 ml nebulized, two days", "result": 46, "unit": "%"},
      {"measurement": "mean area under the curve of Penh response to methacholine", "setting": "ragweed-sensitized mice [4]; ragweed only 7488.8, non-allergic saline 2646.8", "result": 4038.0},
      {"measurement": "total area under the curve for the change in compliance following allergen challenge", "setting": "[5]; AUC unit = % change×minutes, 15 minutes, saline −394±127", "result": "−49±116", "unit": "units"},
      {"measurement": "total area under the curve for the change in resistance following allergen challenge", "setting": "[5]; AUC unit = % change×minutes, saline 564±266", "result": "54±90", "unit": "units"},
      {"measurement": "attenuation of the increase in airway resistance following allergen challenge", "setting": "[5]; compared to saline treatment", "result": 90, "unit": "%"},
      {"measurement": "attenuation of the drop in airway compliance following allergen challenge", "setting": "[5]; nebulized 5 mg/ml, 2 ml once per day, 5 days, compared to saline treatment", "result": 87, "unit": "%"},
      {"measurement": "total AUC for airway resistance", "setting": "[6]; 6 hours, control 315", "result": 377},
      {"measurement": "PC50 histamine", "setting": "[6]; 48 hours after the last administration, control 0.84", "result": 0.86, "unit": "mg/mL"},
      {"measurement": "tolerance of pulmonary function testing and histamine challenges", "setting": "[6]; 7 days of treatment via facemask, qualitative", "result": "better than vehicle-treated animals"},
      {"measurement": "effect on airway resistance changes", "setting": "[6]; in the 6 hours after aerosol dust mite challenge", "result": "no significant effect"},
      {"measurement": "attenuation of the drop in airway compliance following allergen challenge", "setting": "[6]; nebulized 5 mg/ml, 2 ml once per day, 7 days, compared to vehicle treatment", "result": 62, "unit": "%"},
      {"measurement": "nasal congestion following histamine and dust mite challenges", "setting": "[6]; rabbit, in vivo", "result": "no evidence of nasal congestion"}
    ]}
  ]
}
